Measured values reported in patent publication US20230365555A1, “CRYSTALLINE POLYMORPH FORM A OF A JAK INHIBITORAND METHODS FOR ITS PREPARATION” (ACLARIS THERAPEUTICS, INC., priority 2020, published 2023).

Assay: Dynamic vapor sorption (DVS) analysis
Assay type: physicochemical
Conditions: bulk material, a batch of Compound 1; FIG. 5

- moisture uptake (DVS isotherms): low moisture uptake
SMILES: CCOC(=O)c1cnc2[nH]ccc2c1N[C@@H]1CCCN(C(=O)CC#N)C1 [Compound 1, ethyl (R)-4-((1-(2-cyanoacetyl)piperidin-3-yl)amino)-1H-pyrrolo[2,3-b]pyridine-5-carboxylate]
